# Reference: patent US6436705B1, “Shape stabilized erythrocytes” (The United States of America as represented by the …, priority 1997, dated 2002)
# Read-outs that look alike come from different tables or passages of the source.
# Assays:
# Human erythrocytes [1] = assay: cells; assay type: cell-based
# Method: Packed human erythrocytes from healthy donors were obtained from the National Naval Medical Center (Bethesda, Md.) within 48 h of donation and used within 7 days. Packed erythrocytes were washed twice in phosphate buffer solution (PBS) then re-suspended in PBS (1 vol PBS:1 vol packed cells). The erythrocyte suspension (100 ml) was placed on ice and carbon monoxide (CO) was bubbled through it for 2 hours. Saturation with CO (100%) was achieved under these conditions as detected with a CO-oximeter. Erythrocytes were packed and cross-linked with DTBP at 4° C. for different incubation times (from 1 to 24 h; 9 vol cross-linking solution: 1 vol packed cells). The cross-linking solution was prepared by dissolving DTBP in PBS (pH 7.8). After incubation DTBP was removed by repeated washing of the red cells in PBS (IEC Centra centrifuge for 10 min at 1008×g). Reversal of the cross-linking was carried out at room temperature with the reducing agent dithioerythritol (DTT) at a concentration of 10 mM in PBS (9 vol reducing solution: 1 vol packed cells) for 20 min or as indicated in the figure legends. DTT was removed by repeated washing of the red cells in PBS (IEC Centra centrifuge for 10 min at 1008×g). CO-treatment was reversed at room temperature using a hollow fiber membrane oxygenator model Capiox 308. Erythrocytes were processed through the oxygenator for 1 h. Saturation with oxygen (92%) was reached as detected with a CO-oximeter.
# Erythrocytes were cross-linked with DTBP at different concentrations for different incubation times. 1 ml of the erythrocyte suspension was taken out at regular incubation times centrifuged and DTBP was removed (Eppendorf centrifuge for 3 min at 3000×g). Distilled water (1 ml) was added to the remaining packed cells. After 30 min the cells were again centrifugated (Eppendorf centrifuge for 3 min at 3000×g), and the supernatants were processed for hemolysis measurements. For determination of hemolysis the cyanmethemoglobin method was applied (see Brown in “Hematology: principles and procedures” pp. 29-31 (Lea and Febiger, eds., 1984)). Absorbance was measured at 540 nm and percent hemolysis was determined by Equation (1), supra, where the control sample was lysed in distilled water.
# Erythrocyte stability in distilled water was tested after crosslinking reversal as well. Red blood cells were first cross-linked with DTBP then treated with DTT at different concentrations (from 1 to 10 mM) for different incubation times (from 5 to 20 min). Hemolysis in distilled water was measured as described above.
# Human erythrocytes [2] = assay: Osmotic fragility test; assay type: cell-based; conditions: 5 mM DTBP
# Method: An osmotic fragility test (a common clinical test) was performed on erythrocytes cross-linked with 5 mM DTBP for different incubation times and on erythrocytes cross-linked and reversed with DTT. Briefly, 1 ml of the erythrocyte suspension was taken out at regular incubation times, centrifuged, and DTBP or DTT was removed (Eppendorf centrifuge for 3 min at 3000×g). 1 ml of solutions containing buffered sodium sodium chloride at different concentrations (from 1% to 0.1% NaCl in phosphate buffer) were added to the packed cells. After 30 min the samples were centrifugated (Eppendorf centrifuge for 3 min at 3000×g), and the supernatants were processed for hemolysis measurements.
# erythrocytes = assay: Assay of capacity for shape change (LPC-induced echinocytosis, microscopy); assay type: cell-based, human; conditions: 5 mM DTBP for 1 h, then 10 μg/ml LPC
# Method: Microscopy. Cross-linked and reversed cells were prepared as described in the section on erythrocyte preparation, etc., with the addition of 0.5% bovine serum albumin to the solution prior microscopic examination. Cells were examined using an Nikon Optiphot, equipped with PlanApo 20×objective.
# Assay of capacity for shape change. To induce echinocytosis ([…]), erythrocytes were incubated with 10μg/ml LPC for 2 min at room temperature. Erythrocytes were pretreated with 5 mM DTBP for 1 h and then subjected to 10 μg/ml LPC treatment. Microscopic examination of cell morphology was performed. Erythrocytes were pretreated with 5 mM DTBP for 1 h, reversed with 10 mM DTT for 20 min and then subjected to 10 μg/ml LPC treatment. Microscopic examination followed. Erythrocyte response to LPC of normal, cross-linked and reversed cells was compared.
# Red cells = assay: Oxygen carrying ability (oxygen content by CO-oximeter); assay type: cell-based, human; conditions: CO-treated
# Method: A semi-quantitative measure of oxygen carrying ability by DTBP cross-linked and reversed cells was performed. Red cells cross linked with 5 mM DTBP for different incubation times and cells reversed with DTT (see above) were processed through a membrane oxygenator to replace CO with oxygen. Oxygen saturation of the cells was measured using a CO-oximeter. After the oxygenation, cells were subjected to deoxygenation under a stream of nitrogen for 30 min. Percentage oxygen was measured again by the CO-oximeter. Oxygen binding and releasing properties for cross-linked, reversed and normal cells were compared.
# We measured oxygen content (Vol%O2) of cells subjected to cross-linking and reversal with a CO-oximeter 282. […] CO-treated and cross-linked cells with 5 mM DTBP for 5 h, which underwent re-oxygenation in the membrane oxygenator had oxygen content of 7.3 Vol%O2.
# [3] = Homo sapiens, Erythrocyte, 4 h, read-out: hemolysis in distilled water
smiles,measurement,setting,value
"COC(=N)CCSSCCC(=N)OC [DTBP, Dimethyl-3,3′-dithiobispropionimidate]",hemolysis in distilled water,"Human erythrocytes [1]; 1 or 3 mM DTBP, even after prolonged incubation times",did not produce cells stable to hemolysis in distilled water
same,hemolysis at 5000 µM,"Human erythrocytes [1]; Homo sapiens, Erythrocyte, 3 h, read-out: hemolysis in distilled water",100%
same,hemolysis at 5000 µM,Human erythrocytes [1]; [3],88%
same,hemolysis at 7000 µM,Human erythrocytes [1]; [3],21%
same,hemolysis at 10000 µM,Human erythrocytes [1]; [3],0%
same,hemolysis at 5000 µM,"Human erythrocytes [1]; Homo sapiens, Erythrocyte, 5 h, read-out: hemolysis in distilled water",67%
same,hemolysis at 5000 µM,"Human erythrocytes [1]; Homo sapiens, Erythrocyte, 7 h, read-out: hemolysis after the treatment with DTT",35%
same,hemolysis at 5000 µM,"Human erythrocytes [1]; Homo sapiens, Erythrocyte, 7 h, read-out: hemolysis in distilled water",45%
same,hemolysis at 5000 µM,"Human erythrocytes [1]; Homo sapiens, Erythrocyte, 24 h, read-out: hemolysis after the treatment with DTT",100%
same,hemolysis at 5000 µM,"Human erythrocytes [1]; Homo sapiens, Erythrocyte, 24 h, read-out: hemolysis in distilled water",10%
same,stability in the presence of the reducing agent (DTT),"Human erythrocytes [1]; cells with lower degree of stabilization (5 mM DTBP 5 h, 67% lysis in water)",stable in the presence of the reducing agent
same,NaCl concentration at which hemolysis started,Human erythrocytes [2]; 1 h cross-linked cells,0.4 % NaCl
same,NaCl concentration at which total lysis was first measured,Human erythrocytes [2]; 1 h cross-linked cells,0.1 % NaCl
same,NaCl concentration at which hemolysis started,Human erythrocytes [2]; 3 h cross-linked cells,0.30 % NaCl
same,NaCl concentration at which total lysis was first measured,Human erythrocytes [2]; 3 h cross-linked cells,0.0 % NaCl
same,effect on LPC-induced echinocytosis,erythrocytes,completely blocked
same,oxygen content,"Red cells; 5 mM DTBP 5 h, re-oxygenated then deoxygenated with nitrogen",2.9 Vol%O2
same,oxygen content,"Red cells; 5 mM DTBP for 5 h, re-oxygenated in membrane oxygenator",7.3 Vol%O2
